Measured values published in patent US6762198B2, “Dihetero-substituted metalloprotease inhibitors” (The Procter & Gamble Company, priority 1999, dated 2004).

Tests used:
[1] = test system: patient suffering from chemical bums; assay: Example D: topical composition in a patient with chemical burns; format: in vivo, human; conditions: 0.20% w/v topical composition at each dressing change (b.i.d.)
Excerpt: A topical composition for local administration, according to the present invention, is made comprising:
A patient suffering from chemical bums applies the composition at each dressing change (b.i.d.).

[2] = test system: human subject suffering from osteoarthritis; assay: Example B: oral capsule in a human subject with osteoarthritis; format: in vivo; conditions: human 90 kg, capsule containing 70 mg daily for 5 years
Method: A capsule for oral administration, according to the present invention, is made comprising:
A human subject weighing 90 kg (198 lbs.), suffering from osteoarthritis, is treated by a method of this invention. Specifically, for 5 years, a capsule containing 70 mg of the compound of Example 3 is administered daily to said subject.

[3] = test system: patient having deep corneal abrasion; assay: Example C: saline-based eye drop in a patient with deep corneal abrasion; format: in vivo, human; conditions: 5% w/w saline-based drop to each eye twice a day
Excerpt: A saline-based composition for local administration, according to the present invention, is made comprising:
A patient having deep corneal abrasion applies the drop to each eye twice a day.

[4] = test system: human subject with a premetastatic tumor; assay: Example G: parenteral suspension in a human subject with a premetastatic tumor; format: in vivo; conditions: about 2.0 mL of 100 mg/mL suspension injected beside the tumor twice daily, after 30 days
Method: A composition for parenteral administration is made comprising:
The above ingredients are mixed, forming a suspension. Approximately 2.0 mL of the suspension is administered, via injection, to a human subject with a premetastatic tumor. The injection site juxtaposes the tumor. This dosage is repeated twice daily, for approximately 30 days.

[5] = test system: asthma sufferer; assay: Example E: inhalation aerosol in an asthma sufferer; format: in vivo, human; conditions: 0.01 mL of 5.0% w/v inhalation aerosol sprayed into the mouth while inhaling
[6] = test system: human subject suffering from rheumatoid arthritis; assay: Example A: oral tablets in a human subject with rheumatoid arthritis; format: in vivo; conditions: human 60 kg, three tablets (15 mg compound each) per day orally for 2 years
Method: A tablet composition for oral administration, according to the present invention, is made comprising:
A human subject weighing 60 kg (132 lbs), suffering from rheumatoid arthritis, is treated by a method of this invention. Specifically, for 2 years, a regimen of three tablets per day is administered orally to said subject.

## COc1ccc(-c2ccc(S(=O)(=O)NC(CC(O)CNc3ccccc3)C(=O)O)cc2)cc1 (stereo not drawn) [Example 19, 2-[(4′-Methoxy[1,1′-biphenyl]-4-yl)sulfonyl]amino-4-hydroxy-5-(phenylamino)-pentanoic Acid]
[1]
  scarring: Scarring is substantially diminished

## O=C(O)C(CC(O)CSc1nccs1)NS(=O)(=O)c1ccc(-c2ccc(Oc3ccccc3)cc2)cc1 (stereo not drawn) [Example 3, 2-[(4′-Phenoxy[1,1′-biphenyl]-4-yl)sulfonyl]amino-4-hydroxy-5-[(2-thiazolyl)thio]pentanoic Acid]
[2]
  advancement of erosion/fibrillation of the articular cartilage (x-ray, arthroscopy and/or MRI): no further advancement of erosion/fibrillation of the articular cartilage

## Cc1ccc(C#Cc2ccc(S(=O)(=O)NC(CC(O)CSc3nccs3)C(=O)O)cc2)cc1 (stereo not drawn) [Example 10, 2-[[4-[(4-Methylphenyl)ethynyl]phenyl]sulfonyl]amino-4-hydroxy-5-[(2-thiazolyl)thio]-pentanoic Acid]
[3]
  corneal healing: Healing is speeded, with no visual sequelae

## COc1ccc(-c2ccc(S(=O)(=O)NC(CC(O)CSc3ncc[nH]3)C(=O)O)cc2)cc1 (stereo not drawn) [Example 22, 2-[(4′-Methoxy[1,1′-biphenyl]-4-yl)sulfonyl]amino-4-hydroxy-5[(2-imidazolyl)thio]-pentanoic Acid]
[4]
  symptoms of the disease: symptoms of the disease subside

## COc1ccc(-c2ccc(S(=O)(=O)NC(CC(O)CSc3n[nH]c(-c4ccccc4)n3)C(=O)O)cc2)cc1 (stereo not drawn) [Example 42, 2-[(4′-Methoxy[1,1′-biphenyl]-4-yl)sulfonyl]amino-4-hydroxy-5-[(5-phenyl-1H-1,2,4-triazol-3-yl)thio]-pentanoic Acid]
[5]
  asthma symptoms: Asthma symptoms are diminished

## COc1ccc(-c2ccc(S(=O)(=O)NC(CC(O)CSc3nccs3)C(=O)O)cc2)cc1 (stereo not drawn) [Example 1, 2-[(4′-Methoxy[1,1′-biphenyl]-4-yl)sulfonyl]amino-4-hydroxy-5-[(2-thiazolyl)thio]-pentanoic Acid]
[6]
  inflammation, mobility and pain at the end of the treatment period: reduced inflammation, and improved mobility without concomitant pain
